Source: patent US8906868B2, “Aminoglycoside derivatives” (Rempex Pharmaceuticals, Inc., priority 2010, dated 2014)
Values after ≈ are worked out from the molar mass of the structure shown. Like-named read-outs stand apart in the source and are kept apart here.

Columns and labels:
[1] = tested on: Pseudomonas aeruginosa (ATCC 27853); assay: MIC, broth microdilution; conditions: for MIC: Pseudomonas aeruginosa
ACM1005 ATCC 19004 = assay: MIC, broth microdilution; type: cell-based, Acinetobacter baumannii; conditions: for MIC: Acinetobacter baumannii, ATCC19004, Table 4, read-out: Compound MIC on Bacterial Strains: Acinetobacter baumannii ACM1005 ATCC 19004
Description: (§1) To compare microbiological activity of the test compounds, minimum inhibitory concentrations (MIC.s) were determined. Antibiotic MICs were obtained using the broth microdilution method according to Clinical and Laboratory Standards Institute (CLSI) approved guidelines (Methods for dilution antimicrobial susceptibility tests for bacteria that grow aerobically; approved standard—7th ed. CLSI document M7-A7. Clinical and Laboratory Standards Institute, Wayne, Pa., incorporated herein by reference in its entirety). Antibiotics were dissolved as specified by CLSI (Performance standards for antimicrobial susceptibility testing; Seventeenth informational supplement. CLSI document M100-S17. Clinical and Laboratory Standards Institute, Wayne, Pa., incorporated herein by reference in its entirety), and were serially diluted 2-fold in cation adjusted Mueller Hinton Broth (CaMHB) at 2× concentration. Bacterial inoculums were prepared in CaMHB by suspension of a colony from an agar plate that was prepared the previous day to obtain a final concentration of 5×10^5CFU/ml. The plates were incubated for 18 hours at 35° C. […] MIC.s were determined by reading the turbidity of plate wells using a SpectraMax Plus384 plate reader (Molecular Devices, Sunnyvale, Calif., USA) at 600 nm and were confirmed by visual inspection.

PAM3072 aac(6′)-II = assay: microbe, parasite or virus in culture; type: cell-based, Pseudomonas aeruginosa; conditions: for MIC: Pseudomonas aeruginosa, Table 5, read-out: Compound MIC on Bacterial Strains: Pseudomonas aeruginosa PAM3072 aac(6′)-II
Description: as §1

PAM3073 aac(6′)-I = assay: microbe, parasite or virus in culture; type: cell-based, Pseudomonas aeruginosa; conditions: for MIC: Pseudomonas aeruginosa, Table 5, read-out: Compound MIC on Bacterial Strains: Pseudomonas aeruginosa PAM3073 aac(6′)-I
Description: as §1

ACM1006 acc(6′)-Ib = assay: microbe, parasite or virus in culture; type: cell-based, Acinetobacter baumannii; conditions: for MIC: Acinetobacter baumannii, Table 4, read-out: Compound MIC on Bacterial Strains: Acinetobacter baumannii ACM1006 acc(6′)-Ib
Description: as §1

ECM6003 rmtB = assay: microbe, parasite or virus in culture; type: cell-based, Escherichia coli; conditions: for MIC: Escherichia coli, Table 3, read-out: Compound MIC on Bacterial Strains: ECM6003 rmtB
Description: as §1
(§2) Activity of the test compounds was determined using QC strains and strains with known aminoglycoside resistance mechanisms (TABLE 3). This specific panel contained strains expressing enzymes that covalently modify N2″, N3 and N3′ positions.
The panel also contained a strain expressing ribosomal RNA methylase, RmtB.

[2] = tested on: Escherichia coli (ATCC 25922); assay: MIC, broth microdilution; conditions: for MIC: Escherichia coli
[3] = tested on: Staphylococcus aureus (ATCC 29213); assay: MIC, broth microdilution; conditions: for MIC: Staphylococcus aureus
EC1001 acc(6′)-Ib = assay: microbe, parasite or virus in culture; type: cell-based, Escherichia coli; conditions: for MIC: Escherichia coli, Table 4, read-out: Compound MIC on Bacterial Strains: Escherichia coli EC1001 acc(6′)-Ib
Description: as §1

[4] = tested on: ECM6007 aac(6′) + aph(2″); assay: microbe, parasite or virus in culture; type: cell-based, Escherichia coli; conditions: for MIC: Escherichia coli, 18 h, Table 4, read-out: Compound MIC on Bacterial Strains: Escherichia coli ECM6007 aac(6′) + aph(2″)
Description: as §1

EC1002 aph(3′)-IV = assay: organism not typed; type: cell-based; conditions: for MIC: read-out: Compound MIC on Bacterial Strains: EC1002 aph(3′)-IV
Description: as §1, §2

[5] = tested on: Klebsiella pneumonia (ATCC 43816); assay: MIC, broth microdilution; conditions: Klebsiella pneumoniae, ATCC43816, read-out: Compound MIC on Bacterial Strains: K. pneumonia ATCC 43816
ECM6006 aph(3′)-III = assay: microbe, parasite or virus in culture; type: cell-based, Escherichia coli; conditions: for MIC: Escherichia coli, read-out: Compound MIC on Bacterial Strains: ECM6006 aph(3′)-III
Description: as §1, §2

ECM6010 ant(2″)-I = assay: microbe, parasite or virus in culture; type: cell-based, Escherichia coli; conditions: for MIC: Escherichia coli, read-out: Compound MIC on Bacterial Strains: ECM6010 ant(2″)-I
Description: as §1, §2

ECM6009 aac(3)-II = assay: microbe, parasite or virus in culture; type: cell-based, Escherichia coli; conditions: for MIC: Escherichia coli, read-out: Compound MIC on Bacterial Strains: ECM6009 aac(3)-II
Description: as §1, §2

ECM6011 aph(3′)-I = assay: microbe, parasite or virus in culture; type: cell-based, Escherichia coli; conditions: for MIC: Escherichia coli, read-out: Compound MIC on Bacterial Strains: ECM6011 aph(3′)-I
Description: as §1, §2

Sa 287 aac(6′) + aph(2″) = assay: microbe, parasite or virus in culture; type: cell-based, Staphylococcus aureus; conditions: for MIC: Staphylococcus aureus, 18 h, Table 5, read-out: Compound MIC on Bacterial Strains: Staphylococcus aureus Sa 287 aac(6′) + aph(2″)
Description: as §1

[6] = tested on: Acinetobacter baumannii (ATCC 19606); assay: MIC, broth microdilution; conditions: Acinetobacter baumannii, ATCC19606, read-out: Compound MIC on Bacterial Strains: A. baumannii ATCC 19606
[7] = ATCC27853, read-out: Compound MIC on Bacterial Strains: P. aeruginosa ATCC 27853
[8] = ATCC27853, read-out: Compound MIC on Bacterial Strains: Pseudomonas aeruginosa PAM3034 ATCC 27853
[9] = ATCC25922, read-out: Compound MIC on Bacterial Strains: E. coli ATCC 25922
[10] = ATCC25922, read-out: Compound MIC on Bacterial Strains: ECM6000 ATCC 25922
[11] = ATCC25922, read-out: Compound MIC on Bacterial Strains: Escherichia coli ECM6000 ATCC 25922
[12] = ATCC29213, read-out: Compound MIC on Bacterial Strains: S. aureus ATCC 29213, QC strain, Table 2
[13] = ATCC29213, read-out: Compound MIC on Bacterial Strains: Staphylococcus aureus SAM1000 ATCC 29213, Table 5

Compound | MIC [1, 7] [mg/L] | MIC [1, 8] [mg/L] | MIC (ACM1005 ATCC 19004) [mg/L] | MIC (PAM3072 aac(6′)-II) [mg/L] | MIC (PAM3073 aac(6′)-I) [mg/L] | MIC (ACM1006 acc(6′)-Ib) [mg/L] | MIC (ECM6003 rmtB) [mg/L] | MIC [2, 9] [mg/L] | MIC [2, 10] [mg/L] | MIC [2, 11] [mg/L] | MIC [3, 12] [mg/L] | MIC [3, 13] [mg/L] | MIC (EC1001 acc(6′)-Ib) [mg/L] | MIC [4] [mg/L] | MIC (EC1002 aph(3′)-IV) [mg/L] | MIC [5] [mg/L] | MIC (ECM6006 aph(3′)-III) [mg/L] | MIC (ECM6010 ant(2″)-I) [mg/L] | MIC (ECM6009 aac(3)-II) [mg/L] | MIC (ECM6011 aph(3′)-I) [mg/L] | other results
CN[C@@H]1C(O)[C@@H](OC2C(O)C(O[C@H]3O[C@H](CN)CCC3N)[C@@H](N)C[C@H]2NC(=O)[C@@H](O)[C@@H](O)CN)OCC1(C)O (stereo partly drawn) [Compound 21, (2S,3R)-4-amino-N-((1R,2S,3S,4R,5S)-5-amino-4-((2R,3R,6S)-3-amino-6-(aminomethyl)tetrahydro-2H-pyran-2-vyloxy)-2-((2R,3R,4R,5R)-3,5-dihydroxy-5-methyl-4-(methylamino)tetrahydro-2H-pyran-2-yloxy)-3-hydroxycyclohexyl)-2,3-dihydroxybutanamide] | < 1 | 1 to 8 (≈ 1.76 to 14.1 µM) | 1 to 8 (≈ 1.76 to 14.1 µM) | > 8 | 1 to 8 (≈ 1.76 to 14.1 µM) | 1 to 8 (≈ 1.76 to 14.1 µM) | 1 to 8 (≈ 1.76 to 14.1 µM) | < 1 | 1 to 8 (≈ 1.76 to 14.1 µM) | 1 to 8 (≈ 1.76 to 14.1 µM) | < 1 | < 1 | > 8 | < 1 | 1 to 8 (≈ 1.76 to 14.1 µM) | < 1 | 1 to 8 (≈ 1.76 to 14.1 µM) | < 1 | < 1 | 1 to 8 (≈ 1.76 to 14.1 µM) | MIC (Sa 287 aac(6′) + aph(2″)): 1 to 8 mg/L; MIC [6]: > 8 mg/L
NC[C@H]1O[C@H](O[C@H]2[C@H](O)[C@@H](O[C@H]3O[C@H](CO)[C@@H](O)[C@H](N)[C@H]3O)[C@H](N)C[C@@H]2N)[C@H](N)C[C@@H]1O [Tobramycin, reference compound] | < 1 | < 1 | < 1 | > 8 | > 8 | > 8 | > 8 | < 1 | < 1 | < 1 | < 1 | < 1 | > 8 | > 8 | < 1 | < 1 | 1 to 8 (≈ 2.14 to 17.1 µM) | > 8 | > 8 | 1 to 8 (≈ 2.14 to 17.1 µM) | MIC (Sa 287 aac(6′) + aph(2″)): > 8 mg/L; MIC [6]: 1 to 8 mg/L (≈ 2.14 to 17.1 µM)
Gentamicin C1a [reference compound] | – | – | – | – | – | – | – | – | – | – | – | – | – | – | – | – | – | – | – | – | Compound MIC on Bacterial Strains: Pseudomonas aeruginosa PAM3034 ATCC 27853 [1]: A (key: A: MIC of 1 μg/ml or less; B: MIC of greater than 1 μg/ml to 8 μg/ml; MIC of greater than 8 μg/ml); Compound MIC on Bacterial Strains: Acinetobacter baumannii ACM1005 ATCC 19004 (ACM1005 ATCC 19004): A (key: A: MIC of 1 μg/ml or less; B: MIC of greater than 1 μg/ml to 8 μg/ml; MIC of greater than 8 μg/ml); Compound MIC on Bacterial Strains: Pseudomonas aeruginosa PAM3072 aac(6′)-II (PAM3072 aac(6′)-II): C (key: A: MIC of 1 μg/ml or less; B: MIC of greater than 1 μg/ml to 8 μg/ml; MIC of greater than 8 μg/ml); Compound MIC on Bacterial Strains: Pseudomonas aeruginosa PAM3073 aac(6′)-I (PAM3073 aac(6′)-I): B (key: A: MIC of 1 μg/ml or less; B: MIC of greater than 1 μg/ml to 8 μg/ml; MIC of greater than 8 μg/ml); Compound MIC on Bacterial Strains: Acinetobacter baumannii ACM1006 acc(6′)-Ib (ACM1006 acc(6′)-Ib): C (key: A: MIC of 1 μg/ml or less; B: MIC of greater than 1 μg/ml to 8 μg/ml; MIC of greater than 8 μg/ml); Compound MIC on Bacterial Strains: ECM6003 rmtB (ECM6003 rmtB): C (key: A: MIC of 1 μg/ml or less; B: MIC of greater than 1 μg/ml to 8 μg/ml; MIC of greater than 8 μg/ml); Compound MIC on Bacterial Strains: ECM6000 ATCC 25922 [2]: A (key: A: MIC of 1 μg/ml or less; B: MIC of greater than 1 μg/ml to 8 μg/ml; MIC of greater than 8 μg/ml); Compound MIC on Bacterial Strains: Escherichia coli ECM6000 ATCC 25922 [2]: A (key: A: MIC of 1 μg/ml or less; B: MIC of greater than 1 μg/ml to 8 μg/ml; MIC of greater than 8 μg/ml); Compound MIC on Bacterial Strains: Staphylococcus aureus SAM1000 ATCC 29213 [3]: A (key: A: MIC of 1 μg/ml or less; B: MIC of greater than 1 μg/ml to 8 μg/ml; MIC of greater than 8 μg/ml); Compound MIC on Bacterial Strains: Escherichia coli EC1001 acc(6′)-Ib (EC1001 acc(6′)-Ib): C (key: A: MIC of 1 μg/ml or less; B: MIC of greater than 1 μg/ml to 8 μg/ml; MIC of greater than 8 μg/ml); Compound MIC on Bacterial Strains: Escherichia coli ECM6007 aac(6′) + aph(2″) [4]: B (key: A: MIC of 1 μg/ml or less; B: MIC of greater than 1 μg/ml to 8 μg/ml; MIC of greater than 8 μg/ml); Compound MIC on Bacterial Strains: EC1002 aph(3′)-IV (EC1002 aph(3′)-IV): A (key: A: MIC of 1 μg/ml or less; B: MIC of greater than 1 μg/ml to 8 μg/ml; MIC of greater than 8 μg/ml); Compound MIC on Bacterial Strains: ECM6006 aph(3′)-III (ECM6006 aph(3′)-III): B (key: A: MIC of 1 μg/ml or less; B: MIC of greater than 1 μg/ml to 8 μg/ml; MIC of greater than 8 μg/ml); Compound MIC on Bacterial Strains: ECM6010 ant(2″)-I (ECM6010 ant(2″)-I): C (key: A: MIC of 1 μg/ml or less; B: MIC of greater than 1 μg/ml to 8 μg/ml; MIC of greater than 8 μg/ml); Compound MIC on Bacterial Strains: ECM6009 aac(3)-II (ECM6009 aac(3)-II): C (key: A: MIC of 1 μg/ml or less; B: MIC of greater than 1 μg/ml to 8 μg/ml; MIC of greater than 8 μg/ml); Compound MIC on Bacterial Strains: ECM6011 aph(3′)-I (ECM6011 aph(3′)-I): B (key: A: MIC of 1 μg/ml or less; B: MIC of greater than 1 μg/ml to 8 μg/ml; MIC of greater than 8 μg/ml); Compound MIC on Bacterial Strains: Staphylococcus aureus Sa 287 aac(6′) + aph(2″) (Sa 287 aac(6′) + aph(2″)): C (key: A: MIC of 1 μg/ml or less; B: MIC of greater than 1 μg/ml to 8 μg/ml; MIC of greater than 8 μg/ml)
